Measured values taken from ChEMBL document CHEMBL1201862, “PubChem BioAssay data set” (2004).
Where a name gives a salt, the structure may show the parent alone. Calls of active or inactive are those of the source.

How the values were obtained:
[1] = molecular target: Beta-2 adrenergic receptor (Homo sapiens, UniProt P07550); assay: beta2AR agonists driving receptor internalization, dose response, cell-based, FAP fluorogen, flow cytometry, cherry pick 1 (AID 588763); type: functional
[2] = reduction of Shn3 3'UTR firefly luciferase signal, dose response, Schnurri-3 inhibitor project, cell-based, Clone20 osteoblasts, cherry-pick, set 2 (AID 720490); type: functional;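 also: actives lower the luminescence signal as inhibitors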
[3] = Shn3 3'UTR reporter inhibitors, dose response, cell-based, Clone20 osteoblasts, firefly luciferase, cherry-picked (AID 624132); type: functional;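 also: firefly luciferase luminescence from reporter carrying the Shn3 3'UTR in osteoblasts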
[4] = control 3'UTR Renilla luciferase suppression, dose response, counter-screen for Shn3 inhibitor project, cell-based, Clone20-Shn3RL, cherry-picked (AID 624133); type: functional
[5] = molecular target: Voltage-gated inwardly rectifying potassium channel KCNH2 (Homo sapiens, UniProt Q12809); settings: Potency;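 also: confirmatory quantitative high-throughput screen measuring inhibition of hERG channel activity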
Chain of Voltage-gated inwardly rectifying potassium channel KCNH2 (Q12809 whole entry): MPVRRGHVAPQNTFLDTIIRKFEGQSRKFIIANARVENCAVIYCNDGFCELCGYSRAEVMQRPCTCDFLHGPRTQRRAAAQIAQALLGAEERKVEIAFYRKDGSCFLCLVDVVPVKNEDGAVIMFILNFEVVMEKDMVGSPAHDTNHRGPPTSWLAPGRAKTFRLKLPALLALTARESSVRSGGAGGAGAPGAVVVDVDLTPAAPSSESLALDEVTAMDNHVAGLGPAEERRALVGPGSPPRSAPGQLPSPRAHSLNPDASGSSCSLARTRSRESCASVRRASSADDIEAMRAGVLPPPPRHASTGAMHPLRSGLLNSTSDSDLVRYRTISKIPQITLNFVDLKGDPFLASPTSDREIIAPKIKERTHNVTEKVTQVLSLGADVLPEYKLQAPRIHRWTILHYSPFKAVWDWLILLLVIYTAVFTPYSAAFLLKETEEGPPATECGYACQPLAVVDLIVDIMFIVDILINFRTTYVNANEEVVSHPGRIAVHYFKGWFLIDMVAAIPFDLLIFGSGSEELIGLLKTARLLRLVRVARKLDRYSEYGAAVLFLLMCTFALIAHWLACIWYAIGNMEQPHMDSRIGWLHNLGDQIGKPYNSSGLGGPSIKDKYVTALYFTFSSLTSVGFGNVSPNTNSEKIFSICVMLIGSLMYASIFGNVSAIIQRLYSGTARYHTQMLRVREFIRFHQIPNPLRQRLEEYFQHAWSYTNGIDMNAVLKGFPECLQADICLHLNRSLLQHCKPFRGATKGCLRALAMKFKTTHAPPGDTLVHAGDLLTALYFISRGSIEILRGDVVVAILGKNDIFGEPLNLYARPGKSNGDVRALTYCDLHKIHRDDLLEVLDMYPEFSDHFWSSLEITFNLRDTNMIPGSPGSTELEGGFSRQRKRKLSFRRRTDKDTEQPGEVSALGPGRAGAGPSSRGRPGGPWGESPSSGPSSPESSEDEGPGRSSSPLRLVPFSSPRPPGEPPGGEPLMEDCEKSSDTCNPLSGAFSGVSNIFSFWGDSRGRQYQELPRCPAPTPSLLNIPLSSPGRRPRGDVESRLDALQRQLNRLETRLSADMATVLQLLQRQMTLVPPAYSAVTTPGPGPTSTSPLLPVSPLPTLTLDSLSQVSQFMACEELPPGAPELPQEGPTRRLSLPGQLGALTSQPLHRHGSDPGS

Cytochrome P450 1A2 = molecular target: T1, Cytochrome P450 1A2 (Homo sapiens, UniProt P05177);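 also: PubChem cytochrome P450 panel assay, CYP1A2 panel member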
T1 sequence (P05177 whole entry): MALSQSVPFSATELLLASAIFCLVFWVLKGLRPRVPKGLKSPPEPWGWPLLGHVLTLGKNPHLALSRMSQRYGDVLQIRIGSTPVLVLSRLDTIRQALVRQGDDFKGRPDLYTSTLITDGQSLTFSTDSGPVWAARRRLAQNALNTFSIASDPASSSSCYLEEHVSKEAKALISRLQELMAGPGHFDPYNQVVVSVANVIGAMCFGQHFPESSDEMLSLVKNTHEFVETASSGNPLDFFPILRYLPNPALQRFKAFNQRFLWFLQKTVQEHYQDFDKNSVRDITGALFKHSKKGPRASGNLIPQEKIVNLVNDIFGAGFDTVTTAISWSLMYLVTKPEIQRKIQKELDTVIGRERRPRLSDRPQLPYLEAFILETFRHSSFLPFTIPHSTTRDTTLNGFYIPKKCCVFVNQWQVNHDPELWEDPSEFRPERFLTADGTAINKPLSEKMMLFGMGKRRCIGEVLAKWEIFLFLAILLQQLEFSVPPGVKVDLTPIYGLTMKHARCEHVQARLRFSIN

Cytochrome P450 2C9 [6] = molecular target: T2, Cytochrome P450 2C9 (Homo sapiens, UniProt P11712)
T2 sequence (P11712 whole entry): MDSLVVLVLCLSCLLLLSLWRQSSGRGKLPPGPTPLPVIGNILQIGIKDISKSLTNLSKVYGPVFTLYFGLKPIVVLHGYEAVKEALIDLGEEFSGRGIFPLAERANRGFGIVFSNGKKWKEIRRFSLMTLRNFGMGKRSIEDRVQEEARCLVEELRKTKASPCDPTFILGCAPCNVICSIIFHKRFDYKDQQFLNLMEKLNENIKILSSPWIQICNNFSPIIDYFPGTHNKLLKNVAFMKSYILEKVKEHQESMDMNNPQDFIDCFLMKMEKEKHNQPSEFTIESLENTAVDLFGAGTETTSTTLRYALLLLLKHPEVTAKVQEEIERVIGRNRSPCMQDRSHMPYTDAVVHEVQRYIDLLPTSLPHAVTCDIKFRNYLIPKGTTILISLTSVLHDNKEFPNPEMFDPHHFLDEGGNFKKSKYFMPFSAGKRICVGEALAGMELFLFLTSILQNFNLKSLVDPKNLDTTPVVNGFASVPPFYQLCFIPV

Cytochrome P450 3A4 = Cytochrome P450 3A4 (Homo sapiens, UniProt P08684);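 also: CYP3A4 tested as one member of a cytochrome P450 panel screen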
Chain of Cytochrome P450 3A4 (P08684 whole entry): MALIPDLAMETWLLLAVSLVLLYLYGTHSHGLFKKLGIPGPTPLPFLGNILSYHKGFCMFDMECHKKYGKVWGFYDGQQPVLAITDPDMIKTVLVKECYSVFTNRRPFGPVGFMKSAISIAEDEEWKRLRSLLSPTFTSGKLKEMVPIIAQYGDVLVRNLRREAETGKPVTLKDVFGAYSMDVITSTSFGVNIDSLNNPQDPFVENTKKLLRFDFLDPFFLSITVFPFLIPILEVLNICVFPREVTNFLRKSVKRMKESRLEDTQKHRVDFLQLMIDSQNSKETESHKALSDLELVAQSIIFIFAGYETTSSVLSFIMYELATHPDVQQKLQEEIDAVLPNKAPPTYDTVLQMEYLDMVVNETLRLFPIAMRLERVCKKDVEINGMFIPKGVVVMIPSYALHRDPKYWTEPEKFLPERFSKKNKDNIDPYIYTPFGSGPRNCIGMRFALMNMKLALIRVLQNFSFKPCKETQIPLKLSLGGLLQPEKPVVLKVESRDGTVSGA

Cytochrome P450 2D6 = Cytochrome P450 2D6 (Homo sapiens, UniProt P10635);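 also: CYP2D6 member of a cytochrome P450 panel assay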
Chain of Cytochrome P450 2D6 (P10635 whole entry): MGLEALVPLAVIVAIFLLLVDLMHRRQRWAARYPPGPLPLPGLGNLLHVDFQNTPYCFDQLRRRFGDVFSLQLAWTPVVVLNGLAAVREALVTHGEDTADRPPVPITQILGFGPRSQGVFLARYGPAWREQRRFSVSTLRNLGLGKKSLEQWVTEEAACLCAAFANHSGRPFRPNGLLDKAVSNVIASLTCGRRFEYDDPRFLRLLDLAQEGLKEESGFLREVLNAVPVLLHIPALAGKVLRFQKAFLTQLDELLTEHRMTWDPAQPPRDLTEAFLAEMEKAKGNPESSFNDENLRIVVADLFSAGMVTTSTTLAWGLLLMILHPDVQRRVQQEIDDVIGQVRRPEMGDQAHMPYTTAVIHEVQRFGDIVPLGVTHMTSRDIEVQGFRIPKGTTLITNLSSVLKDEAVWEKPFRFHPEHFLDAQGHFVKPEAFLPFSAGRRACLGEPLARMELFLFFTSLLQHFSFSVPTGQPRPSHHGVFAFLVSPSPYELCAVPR

Cytochrome P450 2C19 = Cytochrome P450 2C19 (Homo sapiens, UniProt P33261); assay: Cytochrome panel assay with activity outcomes. Panel member name: p450-cyp2c19 Compounds with AC50 equal or less than 10 uM are considered active; type: functional
Chain of Cytochrome P450 2C19 (P33261 whole entry): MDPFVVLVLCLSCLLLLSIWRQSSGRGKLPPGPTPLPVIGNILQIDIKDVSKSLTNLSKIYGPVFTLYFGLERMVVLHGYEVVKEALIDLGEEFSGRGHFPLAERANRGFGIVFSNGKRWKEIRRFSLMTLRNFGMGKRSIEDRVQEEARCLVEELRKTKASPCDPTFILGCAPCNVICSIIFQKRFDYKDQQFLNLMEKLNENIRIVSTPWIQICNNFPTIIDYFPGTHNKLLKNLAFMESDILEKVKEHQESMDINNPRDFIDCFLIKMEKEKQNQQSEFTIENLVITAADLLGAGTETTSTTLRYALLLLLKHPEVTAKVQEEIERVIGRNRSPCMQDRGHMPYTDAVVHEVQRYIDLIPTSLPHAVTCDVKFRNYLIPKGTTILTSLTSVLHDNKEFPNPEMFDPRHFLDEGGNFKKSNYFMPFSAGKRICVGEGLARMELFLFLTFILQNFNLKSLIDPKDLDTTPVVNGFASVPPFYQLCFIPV

HEK293 [7] = assay: cells; settings: Homo sapiens
[8] = growth suppression of beta-catenin-knockout colon cells, dose response, cell-based, HCT116, human colon tumor (AID 1045); type: functional;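 also: HCT116 colon tumor cells with beta catenin knocked out; cells exposed to compound for 60 hours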
HEK293 [9] = assay: cells; settings: Homo sapiens; remark: listed apart in the source
[10] = growth suppression of PTEN-null colon cells, dose response, cell-based, HCT116 PTEN knockout (AID 1047); type: functional;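 also: HCT116 colon tumor cells with PTEN knocked out; cells exposed to compound for 60 hours before readout; potency for loss of cell viability measured by luminescence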
[11] = molecular target: Heat shock protein HSP 90-alpha (Homo sapiens, UniProt P07900); type: functional, organism-based
Genome polyprotein = Genome polyprotein (dengue virus type 2, UniProt P29990); assay: Dengue-2 NS5 methyltransferase inhibitors, primary screen, biochemical, confirmation dose response (AID 588689); type: functional
Chain of Genome polyprotein (P29990 2492-3391 limits assumed): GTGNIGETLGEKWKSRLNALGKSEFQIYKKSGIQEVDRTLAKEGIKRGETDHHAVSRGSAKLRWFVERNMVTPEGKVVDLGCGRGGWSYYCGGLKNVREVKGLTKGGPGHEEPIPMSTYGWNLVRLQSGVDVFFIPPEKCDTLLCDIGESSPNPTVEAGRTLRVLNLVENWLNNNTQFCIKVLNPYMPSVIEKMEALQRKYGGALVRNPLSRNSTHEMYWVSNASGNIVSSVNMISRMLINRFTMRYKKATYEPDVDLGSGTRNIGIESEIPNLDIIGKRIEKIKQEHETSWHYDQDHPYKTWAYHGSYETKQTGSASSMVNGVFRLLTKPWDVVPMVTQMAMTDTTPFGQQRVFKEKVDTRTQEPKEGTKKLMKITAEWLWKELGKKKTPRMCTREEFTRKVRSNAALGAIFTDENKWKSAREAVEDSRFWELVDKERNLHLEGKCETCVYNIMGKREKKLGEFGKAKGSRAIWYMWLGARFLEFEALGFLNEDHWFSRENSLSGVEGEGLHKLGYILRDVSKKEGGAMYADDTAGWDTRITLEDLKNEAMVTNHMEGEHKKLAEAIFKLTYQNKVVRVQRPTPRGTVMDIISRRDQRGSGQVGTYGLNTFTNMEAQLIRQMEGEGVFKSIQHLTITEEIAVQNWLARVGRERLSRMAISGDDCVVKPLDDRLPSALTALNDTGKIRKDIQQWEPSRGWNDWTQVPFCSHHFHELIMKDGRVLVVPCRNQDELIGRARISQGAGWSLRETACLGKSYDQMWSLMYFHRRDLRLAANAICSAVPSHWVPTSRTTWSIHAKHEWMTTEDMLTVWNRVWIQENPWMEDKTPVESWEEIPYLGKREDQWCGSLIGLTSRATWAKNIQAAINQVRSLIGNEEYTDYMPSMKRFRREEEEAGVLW

Vero = Vero cell cytotoxicity, cytotoxicity control for flavivirus capping enzyme inhibitors (AID 588742); type: functional; settings: Chlorocebus sabaeus
[12] = molecular target: T3, Sentrin-specific protease 6 (Homo sapiens, UniProt Q9GZR1); assay: SENP6 protease inhibitors, SAR follow-up, biochemical, luminescence, set 2 (AID 588598); type: functional
T3 sequence (Q9GZR1 whole entry): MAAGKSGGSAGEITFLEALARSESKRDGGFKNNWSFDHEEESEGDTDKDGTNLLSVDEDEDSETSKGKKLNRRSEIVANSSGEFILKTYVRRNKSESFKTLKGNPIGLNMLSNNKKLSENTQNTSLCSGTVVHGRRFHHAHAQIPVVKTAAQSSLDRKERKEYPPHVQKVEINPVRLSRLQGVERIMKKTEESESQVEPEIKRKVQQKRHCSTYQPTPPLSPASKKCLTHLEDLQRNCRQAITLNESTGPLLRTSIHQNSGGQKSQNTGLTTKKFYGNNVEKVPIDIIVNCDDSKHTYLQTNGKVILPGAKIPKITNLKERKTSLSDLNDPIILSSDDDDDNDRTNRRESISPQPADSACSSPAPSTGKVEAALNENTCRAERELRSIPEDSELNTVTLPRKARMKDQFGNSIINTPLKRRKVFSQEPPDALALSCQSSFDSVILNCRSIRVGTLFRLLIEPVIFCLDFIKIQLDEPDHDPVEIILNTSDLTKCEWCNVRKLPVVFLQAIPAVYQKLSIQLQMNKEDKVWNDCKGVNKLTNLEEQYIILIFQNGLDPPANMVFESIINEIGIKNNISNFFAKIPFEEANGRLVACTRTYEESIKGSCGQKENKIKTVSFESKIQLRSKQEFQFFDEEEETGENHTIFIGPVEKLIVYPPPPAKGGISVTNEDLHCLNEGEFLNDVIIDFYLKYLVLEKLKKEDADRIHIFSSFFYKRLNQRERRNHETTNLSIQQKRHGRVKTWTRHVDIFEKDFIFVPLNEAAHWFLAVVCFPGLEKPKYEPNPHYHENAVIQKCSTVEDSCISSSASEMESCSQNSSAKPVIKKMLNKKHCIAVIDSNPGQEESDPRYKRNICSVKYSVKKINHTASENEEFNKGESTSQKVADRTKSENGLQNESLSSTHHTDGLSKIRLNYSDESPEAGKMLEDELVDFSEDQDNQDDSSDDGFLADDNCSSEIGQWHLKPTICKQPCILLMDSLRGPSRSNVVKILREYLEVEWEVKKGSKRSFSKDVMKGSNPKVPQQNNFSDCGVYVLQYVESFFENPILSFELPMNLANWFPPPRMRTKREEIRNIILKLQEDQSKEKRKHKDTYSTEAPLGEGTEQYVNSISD

Caspase-3 [13] = molecular target: T4, Caspase-3 (Homo sapiens, UniProt P42574); assay: caspase-3 inhibitors as off-family protease, SAR follow-up, selectivity assay for SENP protease inhibitor project, biochemical, luminescence, set 2 (AID 588599); type: functional
T4 sequence (P42574 whole entry): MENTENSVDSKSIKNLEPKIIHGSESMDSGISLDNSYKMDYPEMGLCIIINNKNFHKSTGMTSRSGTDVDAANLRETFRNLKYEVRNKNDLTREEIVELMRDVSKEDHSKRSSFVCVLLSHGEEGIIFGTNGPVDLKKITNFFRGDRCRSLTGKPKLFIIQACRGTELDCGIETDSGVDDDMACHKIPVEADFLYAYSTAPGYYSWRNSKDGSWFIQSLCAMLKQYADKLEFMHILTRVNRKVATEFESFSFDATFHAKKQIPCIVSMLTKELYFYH

[14] = molecular target: T5, Sentrin-specific protease 8 (Homo sapiens, UniProt Q96LD8); assay: SENP8 protease inhibitors, SAR follow-up, biochemical, luminescence (AID 504501); type: functional
T5 sequence (Q96LD8 whole entry): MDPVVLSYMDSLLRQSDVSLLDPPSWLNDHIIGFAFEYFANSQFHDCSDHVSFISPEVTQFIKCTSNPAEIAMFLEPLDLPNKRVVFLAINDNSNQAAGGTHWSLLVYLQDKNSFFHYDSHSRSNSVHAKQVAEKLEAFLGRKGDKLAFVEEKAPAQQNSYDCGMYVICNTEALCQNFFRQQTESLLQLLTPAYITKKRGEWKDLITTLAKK

[15] = molecular target: T6, Sentrin-specific protease 7 (Homo sapiens, UniProt Q9BQF6); assay: SENP7 protease inhibitors, SAR follow-up, biochemical, luminescence, set 2 (AID 588600); type: functional
T6 sequence (Q9BQF6 whole entry): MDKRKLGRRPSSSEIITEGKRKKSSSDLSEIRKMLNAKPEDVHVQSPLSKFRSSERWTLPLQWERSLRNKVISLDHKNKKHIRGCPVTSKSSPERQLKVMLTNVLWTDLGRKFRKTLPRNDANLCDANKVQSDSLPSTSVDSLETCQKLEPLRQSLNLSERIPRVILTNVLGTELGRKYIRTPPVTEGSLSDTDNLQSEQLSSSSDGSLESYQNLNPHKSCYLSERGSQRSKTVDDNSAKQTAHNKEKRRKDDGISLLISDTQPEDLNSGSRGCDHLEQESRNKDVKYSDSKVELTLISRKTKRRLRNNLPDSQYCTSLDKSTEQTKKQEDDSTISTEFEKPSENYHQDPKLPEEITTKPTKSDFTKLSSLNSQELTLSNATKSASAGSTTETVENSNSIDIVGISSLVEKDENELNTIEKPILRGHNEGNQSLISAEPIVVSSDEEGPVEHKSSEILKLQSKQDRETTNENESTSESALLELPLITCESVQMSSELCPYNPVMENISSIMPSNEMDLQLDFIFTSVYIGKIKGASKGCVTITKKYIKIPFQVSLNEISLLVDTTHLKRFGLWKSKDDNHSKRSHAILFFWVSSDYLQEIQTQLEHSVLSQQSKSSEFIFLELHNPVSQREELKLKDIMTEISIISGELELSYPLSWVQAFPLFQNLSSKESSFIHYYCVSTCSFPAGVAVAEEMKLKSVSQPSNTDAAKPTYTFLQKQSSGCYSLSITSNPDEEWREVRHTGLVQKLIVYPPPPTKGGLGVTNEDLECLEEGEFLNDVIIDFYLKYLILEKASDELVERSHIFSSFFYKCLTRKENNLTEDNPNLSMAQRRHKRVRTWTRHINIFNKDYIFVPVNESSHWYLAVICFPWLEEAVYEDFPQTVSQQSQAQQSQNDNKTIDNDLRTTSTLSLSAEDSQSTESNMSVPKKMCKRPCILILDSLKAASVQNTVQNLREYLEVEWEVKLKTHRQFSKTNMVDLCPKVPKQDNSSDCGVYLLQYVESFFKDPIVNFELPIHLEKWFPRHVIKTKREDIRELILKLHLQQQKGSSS

[16] = molecular target: T6, Sentrin-specific protease 7; assay: SENP7 protease inhibitors, SAR follow-up, biochemical, luminescence (AID 504497); type: functional
Caspase-3 [17] = molecular target: T4, Caspase-3; assay: SAR Analysis of small molecule inhibitors of Sentrin-specific proteases (SENPs) using a Caspase-3 Selectivity assay. [Related pubchem assays (depositor defined):AID2540, AID2599, AID434973, AID489001]; type: functional
[18] = molecular target: T5, Sentrin-specific protease 8; assay: SENP8 protease inhibitors, SAR follow-up, biochemical, luminescence, set 2 (AID 588601); type: functional
[19] = molecular target: T3, Sentrin-specific protease 6; assay: SAR Analysis of small molecule inhibitors of Sentrin-specific protease 6 (SENP6) using a Luminescent assay. [Related pubchem assays (depositor defined):AID2582, AID2599]; type: functional
Cytochrome P450 2C9 [20] = molecular target: T2, Cytochrome P450 2C9; remark: listed apart in the source
Cytochrome P450 2C9 [21] = molecular target: T2, Cytochrome P450 2C9; settings: Potency

Chain of Beta-2 adrenergic receptor (P07550 whole entry): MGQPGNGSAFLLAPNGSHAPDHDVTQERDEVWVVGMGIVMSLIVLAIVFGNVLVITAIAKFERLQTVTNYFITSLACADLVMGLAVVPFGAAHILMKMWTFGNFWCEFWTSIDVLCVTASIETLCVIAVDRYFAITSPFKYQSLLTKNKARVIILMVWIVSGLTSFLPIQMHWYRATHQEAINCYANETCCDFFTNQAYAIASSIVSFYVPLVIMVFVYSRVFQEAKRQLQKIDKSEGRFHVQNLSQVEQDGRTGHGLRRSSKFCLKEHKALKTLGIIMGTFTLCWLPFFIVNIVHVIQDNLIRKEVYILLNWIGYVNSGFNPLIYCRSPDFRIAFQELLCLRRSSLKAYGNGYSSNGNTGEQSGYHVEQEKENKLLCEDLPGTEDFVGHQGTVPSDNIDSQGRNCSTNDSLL

## COc1ccccc1OCCCC(=O)Nc1nccs1
[1]
  EC50: 5.11 µM (active)

## Cc1ccc(-c2nc3ncccc3o2)cc1NC(=O)c1sc2ccccc2c1Cl
[1]
  EC50: 0.722 µM (active)
[2]
  AC50: 11.8 µM (active)
[3]
  AC50: 5.87 µM (active)
[4]
  AC50: 36.5 µM (active)

## Nc1nc2c(nc(Br)n2C2O[C@H]3CO[P@@](=O)(O)O[C@@H]3C2O)c(=O)[nH]1 (stereo not given in full)
[5]
  AC50: 5.62 µM (inconclusive)

## c1ccc(C(c2ccccc2)N2CC3(CCNCC3)C2)cc1
Cytochrome P450 1A2
  AC50: 15.8 µM (inconclusive)
Cytochrome P450 2C9 [6]
  AC50: 39.8 µM (inconclusive)
Cytochrome P450 3A4
  AC50: inconclusive

## O=C(O)CC1(C(=O)O)CCCCC1
Cytochrome P450 2D6
  AC50: inconclusive
Cytochrome P450 2C19
  AC50: inconclusive

## COc1ccc(-c2[nH]c(-c3ccc(Cl)cc3)nc2SCC(=O)Nc2nccs2)cc1
HEK293 [7]
  EC50: > 59.7 µM (inactive)
[8]
  EC50: 15.3 µM (active)
HEK293 [9]
  EC50: > 59.7 µM (inactive)
[10]
  EC50: 15.9 µM (active)

## CCOC(=O)CN=C(S)N(Cc1cccs1)C1CCCCC1
HEK293 [7]
  EC50: > 59.6 µM (inactive)
HEK293 [9]
  EC50: > 59.6 µM (inactive)

## CC(=O)N(C(C)=O)N1C(=O)/C(=C/c2ccc(Cl)cc2)SC1=S
[11]
  AC50: 1.34 µM (active)
Genome polyprotein
  IC50: 23.5 µM (active)
Vero
  CC50: > 40 µM (active)

## CCCCc1ccc2nc(NC(=O)c3cccn3C)sc2c1
[12]
  IC50: 0.938 µM (active)
Caspase-3 [13]
  IC50: 0.749 µM (active)
[14]
  IC50: 0.81 µM (active)
[15]
  IC50: 0.987 µM (active)
[16]
  IC50: 0.92 µM (active)
Caspase-3 [17]
  IC50: 0.72 µM (active)
[18]
  IC50: 0.944 µM (active)
[19]
  IC50: 0.79 µM (active)

## Cc1ccc2nc(NC(=O)c3cccc(S(=O)(=O)NCC4CCCO4)c3)sc2c1 (stereo not given)
[12]
  IC50: > 99 µM (inactive)
Caspase-3 [13]
  IC50: > 99 µM (inactive)
[15]
  IC50: > 99 µM (inactive)
[18]
  IC50: > 99 µM (inactive)

## O=C(CCc1ccccc1)NNc1cc(N2CCOCC2)nc(N2CCOCC2)n1
[14]
  IC50: > 99 µM (inactive)
[16]
  IC50: > 99 µM (inactive)
Caspase-3 [17]
  IC50: > 99 µM (inactive)
[19]
  IC50: > 99 µM (inactive)

## COc1cc2c(c(OC)c1OC)-c1ccc(OC)c(=O)cc1[C@H](NC(C)=O)CC2
Cytochrome P450 2C9 [20]
  AC50: inactive
Cytochrome P450 2D6
  AC50: inactive
Cytochrome P450 2C9 [21]
  AC50: 39.8 µM (inconclusive)

## Nc1c2c(nc3ccccc13)CCCC2O (stereo not given) [VELNACRINE MALEATE]
[5]
  AC50: 35.5 µM (inconclusive)
